Laboratory results published in ChEMBL document CHEMBL1629458, “Synthesis of phosphatidylinositol 3-kinase (PI3K) inhibitory analogues of the sponge meroterpenoid liphagal” (J Med Chem, 2010).

Columns and labels:
[1] = target: Phosphatidylinositol 4,5-bisphosphate 3-kinase catalytic subunit gamma isoform (Homo sapiens, UniProt P48736); experiment: Inhibition of human PI3Kgamma expressed in Sf9 cells by fluorescent polarization assay
[2] = target: Phosphatidylinositol 4,5-bisphosphate 3-kinase catalytic subunit alpha isoform (Homo sapiens, UniProt P42336); experiment: Inhibition of human PI3Kalpha expressed in Sf9 cells by fluorescent polarization assay
Phosphatidylinositol 4,5-bisphosphate 3-kinase catalytic subunit alpha isoform, sequence (P42336 whole entry, canonical isoform): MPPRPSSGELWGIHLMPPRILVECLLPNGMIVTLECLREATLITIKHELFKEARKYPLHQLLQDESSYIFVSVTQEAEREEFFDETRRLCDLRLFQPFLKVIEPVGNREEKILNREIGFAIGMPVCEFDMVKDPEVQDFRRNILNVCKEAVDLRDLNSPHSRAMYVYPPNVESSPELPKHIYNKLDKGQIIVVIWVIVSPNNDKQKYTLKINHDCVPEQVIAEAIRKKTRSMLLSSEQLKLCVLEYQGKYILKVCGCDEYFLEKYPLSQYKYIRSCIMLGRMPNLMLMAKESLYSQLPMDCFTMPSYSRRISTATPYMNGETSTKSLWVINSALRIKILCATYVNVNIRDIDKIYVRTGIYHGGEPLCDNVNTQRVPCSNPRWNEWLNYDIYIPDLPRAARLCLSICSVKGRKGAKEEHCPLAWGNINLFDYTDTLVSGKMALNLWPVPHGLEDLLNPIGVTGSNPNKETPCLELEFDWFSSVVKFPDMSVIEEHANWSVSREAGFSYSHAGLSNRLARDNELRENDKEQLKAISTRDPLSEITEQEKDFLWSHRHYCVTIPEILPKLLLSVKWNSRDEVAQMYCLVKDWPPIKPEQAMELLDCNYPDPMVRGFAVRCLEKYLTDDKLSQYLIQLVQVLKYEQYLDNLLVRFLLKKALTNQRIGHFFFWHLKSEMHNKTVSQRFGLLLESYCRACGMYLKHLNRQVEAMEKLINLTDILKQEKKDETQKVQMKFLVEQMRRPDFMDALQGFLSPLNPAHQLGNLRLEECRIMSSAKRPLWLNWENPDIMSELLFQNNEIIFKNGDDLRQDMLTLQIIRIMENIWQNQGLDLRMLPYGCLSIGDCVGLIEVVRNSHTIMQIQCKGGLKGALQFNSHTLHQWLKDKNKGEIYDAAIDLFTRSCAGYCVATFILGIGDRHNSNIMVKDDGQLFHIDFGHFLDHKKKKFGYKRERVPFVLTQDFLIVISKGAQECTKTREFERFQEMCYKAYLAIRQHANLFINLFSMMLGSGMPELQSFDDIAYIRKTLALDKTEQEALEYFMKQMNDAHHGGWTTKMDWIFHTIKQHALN

[3] = species: Homo sapiens; experiment: Selectivity for human PI3Kalpha over human PI3Kgamma

Phosphatidylinositol 4,5-bisphosphate 3-kinase catalytic subunit gamma isoform, sequence (P48736 whole entry, canonical isoform): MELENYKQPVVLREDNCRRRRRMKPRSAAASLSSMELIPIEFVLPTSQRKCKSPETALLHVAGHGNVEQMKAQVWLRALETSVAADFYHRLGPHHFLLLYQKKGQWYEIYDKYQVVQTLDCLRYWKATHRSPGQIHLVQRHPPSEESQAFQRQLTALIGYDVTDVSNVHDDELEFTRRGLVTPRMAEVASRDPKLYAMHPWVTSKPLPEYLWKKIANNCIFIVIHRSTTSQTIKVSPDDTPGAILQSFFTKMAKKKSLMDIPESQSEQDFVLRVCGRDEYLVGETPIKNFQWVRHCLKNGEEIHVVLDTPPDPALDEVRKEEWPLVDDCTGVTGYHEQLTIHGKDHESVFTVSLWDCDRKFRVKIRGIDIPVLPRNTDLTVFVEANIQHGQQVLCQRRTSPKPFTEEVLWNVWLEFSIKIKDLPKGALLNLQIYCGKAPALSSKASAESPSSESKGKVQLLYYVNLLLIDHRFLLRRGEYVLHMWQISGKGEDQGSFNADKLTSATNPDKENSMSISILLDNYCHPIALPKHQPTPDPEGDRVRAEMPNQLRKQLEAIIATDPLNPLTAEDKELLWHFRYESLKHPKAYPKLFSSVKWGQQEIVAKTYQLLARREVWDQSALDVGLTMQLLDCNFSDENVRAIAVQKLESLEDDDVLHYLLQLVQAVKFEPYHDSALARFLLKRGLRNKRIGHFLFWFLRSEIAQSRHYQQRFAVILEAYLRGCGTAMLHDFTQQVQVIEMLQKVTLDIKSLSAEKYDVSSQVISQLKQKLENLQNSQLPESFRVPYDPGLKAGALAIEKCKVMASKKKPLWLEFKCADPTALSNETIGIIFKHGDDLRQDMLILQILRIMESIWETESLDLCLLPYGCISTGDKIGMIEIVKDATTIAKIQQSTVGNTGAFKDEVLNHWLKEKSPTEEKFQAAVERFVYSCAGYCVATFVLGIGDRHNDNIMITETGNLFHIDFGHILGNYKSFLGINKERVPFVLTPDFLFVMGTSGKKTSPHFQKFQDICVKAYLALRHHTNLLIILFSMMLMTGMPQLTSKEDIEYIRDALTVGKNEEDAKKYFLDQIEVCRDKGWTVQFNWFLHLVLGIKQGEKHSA

SMILES | IC50 [1] [nM] | IC50 [2] [nM] | Ratio IC50 [3]
COc1ccc2c3c(oc2c1Br)[C@H](C)CC[C@H]1C(C)(C)CCC[C@]31C | > 10000 | > 10000 | –
COc1cc2c3c(oc2c(C=O)c1OC)CC[C@H]1C(C)(C)CCC[C@]31C (racemic) | 2640 | 5120 | –
C[C@@H]1CC[C@H]2C(C)(C)CCC[C@]2(C)c2c1oc1cc(O)ccc21 | > 10000 | > 10000 | –
C[C@@H]1CC[C@H]2C(C)(C)CCC[C@]2(C)C2=C3C=C(O)C(=O)C(Br)=C3OC21O (stereo partly drawn) | > 10000 | 3300 | –
C[C@@H]1CCCC(C)(C)C12CC[C@H](C)c1oc3c(Br)c(O)c(O)cc3c12 (mixture of isomers) | 5300 | 700 | 7
COc1cc2c3c(oc2c(C=O)c1O)CC[C@H]1C(C)(C)CCC[C@]31C (racemic) | 5150 | 1000 | –
CC1(C)CCC[C@]2(C)c3c(oc4c(C(N)=O)c(O)c(O)cc34)CC[C@@H]12 (racemic) | 1400 | 700 | –
CC1(C)CCC[C@]2(C)C3=C4C=C(O)C(=O)C=C4OC3(O)CC[C@@H]12 (mixture of isomers) | 9570 | 1650 | –
C[C@H]1CC[C@H]2C(C)(C)CCC[C@]2(C)c2c1oc1cc(O)ccc21 | 2200 | 2200 | –
C[C@@H]1CC[C@H]2C(C)(C)CCC[C@]2(C)c2c1oc1c(Br)c(O)ccc21 | 5700 | 10200 | –
CC1(C)CCC[C@]2(C)c3c(oc4c(C=O)c(O)c(O)cc34)CC[C@@H]12 (racemic) | 1800 | 66 | 27
C[C@@H]1CC[C@H]2C(C)(C)CCC[C@]2(C)c2c1oc1c(C=O)c(O)c(O)cc21 | 1000 | 100 | –
C[C@@H]1CC[C@H]2C(C)(C)CCC[C@]2(C)c2c1oc1ccc(O)cc21 | 1900 | 7200 | –
